Assays:
[1] = target: T1, MAP3K9 (MLK1) (Homo sapiens, UniProt P80192); experiment: Kinase screening service: MAP3K9; format: biochemical; conditions: average of duplicates
T1 construct: purchased Life Technologies Corporation (Kinase Screening Service)
Protocol: (§1) The inhibitory effect of PT109 on other kinases including SGK and JNK was detected by the Kinase Screening Service of Life Technologies Corporation (The concentration of compound 9 was 10 μM, measurements were performed in duplicates, and the value was represented by an average) to investigate the selectivity of the compound for JNK and SGK1.

[2] = target: T2, CSNK1G2 (CK1 gamma 2) (Homo sapiens, UniProt P78368); experiment: Kinase screening service: CSNK1G2; format: biochemical; conditions: average of duplicates
T2 construct: purchased Life Technologies Corporation (Kinase Screening Service)
T2 sequence (P78368 whole entry): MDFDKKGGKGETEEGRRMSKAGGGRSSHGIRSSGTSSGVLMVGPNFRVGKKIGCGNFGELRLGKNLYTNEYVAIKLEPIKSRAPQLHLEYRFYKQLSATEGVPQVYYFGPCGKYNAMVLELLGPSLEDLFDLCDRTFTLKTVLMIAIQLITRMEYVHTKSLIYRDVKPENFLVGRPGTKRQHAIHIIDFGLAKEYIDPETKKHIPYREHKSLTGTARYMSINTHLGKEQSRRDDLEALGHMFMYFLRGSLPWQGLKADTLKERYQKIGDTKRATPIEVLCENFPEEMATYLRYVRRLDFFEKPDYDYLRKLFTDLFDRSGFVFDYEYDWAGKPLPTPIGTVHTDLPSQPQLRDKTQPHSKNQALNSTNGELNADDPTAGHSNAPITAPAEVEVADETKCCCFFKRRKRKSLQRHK
Protocol: as §1

[3] = target: T3, CSNK1G3 (CK1 gamma 3) (Homo sapiens, UniProt Q9Y6M4); experiment: Kinase screening service: CSNK1G3; format: biochemical; conditions: average of duplicates
T3 construct: purchased Life Technologies Corporation (Kinase Screening Service)
Protocol: as §1

[4] = target: T4, ULK1 (Homo sapiens, UniProt O75385); experiment: Kinase screening service: ULK1; format: biochemical; conditions: average of duplicates
T4 construct: purchased Life Technologies Corporation (Kinase Screening Service)
Protocol: as §1

[5] = target: T5, CSNK1D (CK1 delta) (Homo sapiens, UniProt P48730); experiment: Kinase screening service: CSNK1D; format: biochemical; conditions: average of duplicates
T5 construct: purchased Life Technologies Corporation (Kinase Screening Service)
T5 sequence (P48730 whole entry): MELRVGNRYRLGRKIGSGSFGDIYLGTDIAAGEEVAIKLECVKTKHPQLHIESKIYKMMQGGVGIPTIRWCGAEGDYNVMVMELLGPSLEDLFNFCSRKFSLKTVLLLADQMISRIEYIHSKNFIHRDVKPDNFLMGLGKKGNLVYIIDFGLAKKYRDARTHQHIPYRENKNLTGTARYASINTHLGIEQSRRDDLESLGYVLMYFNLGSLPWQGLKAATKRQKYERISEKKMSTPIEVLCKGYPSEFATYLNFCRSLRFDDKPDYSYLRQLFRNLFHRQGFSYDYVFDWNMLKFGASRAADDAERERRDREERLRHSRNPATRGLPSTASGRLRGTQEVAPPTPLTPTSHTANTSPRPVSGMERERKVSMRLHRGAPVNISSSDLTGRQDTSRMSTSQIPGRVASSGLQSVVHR
Protocol: as §1

[6] = target: T6, NTRK3 (TRKC) (Homo sapiens, UniProt Q16288); experiment: Kinase screening service: NTRK3; format: biochemical; conditions: average of duplicates
T6 construct: purchased Life Technologies Corporation (Kinase Screening Service)
T6 sequence (Q16288 32-839): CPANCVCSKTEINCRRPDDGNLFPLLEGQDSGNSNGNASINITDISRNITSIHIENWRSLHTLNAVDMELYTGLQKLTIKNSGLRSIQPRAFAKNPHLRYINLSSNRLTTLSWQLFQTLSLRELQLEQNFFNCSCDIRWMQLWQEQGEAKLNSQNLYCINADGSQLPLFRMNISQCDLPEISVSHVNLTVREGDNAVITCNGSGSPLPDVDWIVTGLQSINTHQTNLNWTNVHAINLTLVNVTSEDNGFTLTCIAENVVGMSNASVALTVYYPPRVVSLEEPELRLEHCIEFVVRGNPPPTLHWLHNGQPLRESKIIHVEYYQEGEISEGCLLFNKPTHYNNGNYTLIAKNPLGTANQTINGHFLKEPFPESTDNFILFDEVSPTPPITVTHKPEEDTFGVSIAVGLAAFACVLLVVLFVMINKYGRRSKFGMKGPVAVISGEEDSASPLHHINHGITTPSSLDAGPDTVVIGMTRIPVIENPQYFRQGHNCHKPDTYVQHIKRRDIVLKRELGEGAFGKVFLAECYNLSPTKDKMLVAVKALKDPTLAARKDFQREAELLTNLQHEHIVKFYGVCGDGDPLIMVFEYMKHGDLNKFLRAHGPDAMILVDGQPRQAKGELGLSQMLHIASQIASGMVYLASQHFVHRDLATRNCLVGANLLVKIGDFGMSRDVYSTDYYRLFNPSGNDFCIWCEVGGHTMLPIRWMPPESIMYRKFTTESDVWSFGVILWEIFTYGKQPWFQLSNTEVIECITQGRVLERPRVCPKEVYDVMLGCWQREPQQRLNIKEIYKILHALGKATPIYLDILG
Protocol: as §1

[7] = target: T7, MAPK8 (JNK1) (Homo sapiens, UniProt P45983); experiment: Kinase screening service (Life Technologies): JNK1; format: biochemical
T7 construct: purchased Life Technologies Corporation (kinase screening service)
T7 sequence (P45983 whole entry): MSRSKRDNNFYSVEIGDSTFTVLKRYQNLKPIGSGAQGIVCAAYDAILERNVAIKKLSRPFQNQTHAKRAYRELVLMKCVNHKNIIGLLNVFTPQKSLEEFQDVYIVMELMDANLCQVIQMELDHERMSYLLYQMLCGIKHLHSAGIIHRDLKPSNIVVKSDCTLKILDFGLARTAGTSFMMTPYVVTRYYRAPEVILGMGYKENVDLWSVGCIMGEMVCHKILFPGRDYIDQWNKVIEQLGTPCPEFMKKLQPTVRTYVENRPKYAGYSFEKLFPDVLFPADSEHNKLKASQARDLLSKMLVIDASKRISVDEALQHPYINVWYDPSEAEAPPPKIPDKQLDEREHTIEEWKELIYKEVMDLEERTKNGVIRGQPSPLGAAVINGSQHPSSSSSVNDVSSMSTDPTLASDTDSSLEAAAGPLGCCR
Protocol: (§2) The inhibitory effect of PT109 on SGK and INK was detected by the kinase screening commercialization service of Life Technologies Corporation.
as §1

[8] = target: T8, PRKCH (PKC eta) (Homo sapiens, UniProt P24723); experiment: Kinase screening service: PRKCH; format: biochemical; conditions: average of duplicates
T8 construct: purchased Life Technologies Corporation (Kinase Screening Service)
Protocol: as §1

[9] = target: T9, CSNK2A2 (CK2 alpha 2) (Homo sapiens, UniProt P19784); experiment: Kinase screening service: CSNK2A2; format: biochemical; conditions: average of duplicates
T9 construct: purchased Life Technologies Corporation (Kinase Screening Service)
Protocol: as §1

[10] = target: T10, RPS6KA4 (MSK2) (Homo sapiens, UniProt O75676); experiment: Kinase screening service: RPS6KA4; format: biochemical; conditions: average of duplicates
T10 construct: purchased Life Technologies Corporation (Kinase Screening Service)
Protocol: as §1

[11] = target: T11, MAPK9 (JNK2) (Homo sapiens, UniProt P45984); experiment: Kinase screening service (Life Technologies): JNK2; format: biochemical; conditions: average of duplicates
T11 construct: purchased Life Technologies Corporation (kinase screening service)
Protocol: as §2, §1

[12] = target: T12, NEK6 (Homo sapiens, UniProt Q9HC98); experiment: Kinase screening service: NEK6; format: biochemical; conditions: average of duplicates
T12 construct: purchased Life Technologies Corporation (Kinase Screening Service)
T12 sequence (Q9HC98 whole entry): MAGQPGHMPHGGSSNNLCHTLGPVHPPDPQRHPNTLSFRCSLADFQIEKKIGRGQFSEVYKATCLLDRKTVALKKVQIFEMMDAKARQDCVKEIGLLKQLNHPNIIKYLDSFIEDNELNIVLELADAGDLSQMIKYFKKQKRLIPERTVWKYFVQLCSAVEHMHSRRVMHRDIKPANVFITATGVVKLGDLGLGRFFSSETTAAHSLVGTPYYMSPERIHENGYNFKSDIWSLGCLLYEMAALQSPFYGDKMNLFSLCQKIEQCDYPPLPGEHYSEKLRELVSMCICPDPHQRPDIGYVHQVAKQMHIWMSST
Protocol: as §1

[13] = target: T13, MAPK10 (JNK3) (Homo sapiens, UniProt P53779); experiment: Kinase screening service (Life Technologies): JNK3; format: biochemical; conditions: average of duplicates
T13 construct: purchased Life Technologies Corporation (kinase screening service)
Protocol: as §2, §1

[14] = target: T14, TLK1 (Homo sapiens, UniProt Q9UKI8); experiment: Kinase screening service: TLK1; format: biochemical; conditions: average of duplicates
T14 construct: purchased Life Technologies Corporation (Kinase Screening Service)
Protocol: as §1

[15] = target: T15, LTK (TYK1) (Homo sapiens, UniProt P29376); experiment: Kinase screening service: LTK; format: biochemical; conditions: average of duplicates
T15 construct: purchased Life Technologies Corporation (Kinase Screening Service)
Protocol: as §1

[16] = target: T16, PRKCG (PKC gamma) (Homo sapiens, UniProt P05129); experiment: Kinase screening service: PRKCG; format: biochemical; conditions: average of duplicates
T16 construct: purchased Life Technologies Corporation (Kinase Screening Service)
Protocol: as §1

[17] = target: T17, MKNK2 (MNK2) (Homo sapiens, UniProt Q9HBH9); experiment: Kinase screening service: MKNK2; format: biochemical; conditions: average of duplicates
T17 construct: purchased Life Technologies Corporation (Kinase Screening Service)
T17 sequence (Q9HBH9 whole entry): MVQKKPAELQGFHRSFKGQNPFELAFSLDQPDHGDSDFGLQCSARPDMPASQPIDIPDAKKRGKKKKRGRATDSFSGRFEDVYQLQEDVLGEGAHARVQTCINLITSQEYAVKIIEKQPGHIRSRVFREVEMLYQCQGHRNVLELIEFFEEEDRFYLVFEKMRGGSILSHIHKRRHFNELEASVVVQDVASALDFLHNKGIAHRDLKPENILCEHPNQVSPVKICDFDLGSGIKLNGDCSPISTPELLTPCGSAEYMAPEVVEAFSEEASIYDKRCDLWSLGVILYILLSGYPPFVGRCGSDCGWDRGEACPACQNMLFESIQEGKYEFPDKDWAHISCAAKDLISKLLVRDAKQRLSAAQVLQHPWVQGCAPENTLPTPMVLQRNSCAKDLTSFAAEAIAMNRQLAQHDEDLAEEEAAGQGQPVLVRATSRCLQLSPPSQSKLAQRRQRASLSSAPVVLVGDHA
Protocol: as §1

[18] = target: T18, ULK2 (Homo sapiens, UniProt Q8IYT8); experiment: Kinase screening service: ULK2; format: biochemical; conditions: average of duplicates
T18 construct: purchased Life Technologies Corporation (Kinase Screening Service)
T18 sequence (Q8IYT8 whole entry): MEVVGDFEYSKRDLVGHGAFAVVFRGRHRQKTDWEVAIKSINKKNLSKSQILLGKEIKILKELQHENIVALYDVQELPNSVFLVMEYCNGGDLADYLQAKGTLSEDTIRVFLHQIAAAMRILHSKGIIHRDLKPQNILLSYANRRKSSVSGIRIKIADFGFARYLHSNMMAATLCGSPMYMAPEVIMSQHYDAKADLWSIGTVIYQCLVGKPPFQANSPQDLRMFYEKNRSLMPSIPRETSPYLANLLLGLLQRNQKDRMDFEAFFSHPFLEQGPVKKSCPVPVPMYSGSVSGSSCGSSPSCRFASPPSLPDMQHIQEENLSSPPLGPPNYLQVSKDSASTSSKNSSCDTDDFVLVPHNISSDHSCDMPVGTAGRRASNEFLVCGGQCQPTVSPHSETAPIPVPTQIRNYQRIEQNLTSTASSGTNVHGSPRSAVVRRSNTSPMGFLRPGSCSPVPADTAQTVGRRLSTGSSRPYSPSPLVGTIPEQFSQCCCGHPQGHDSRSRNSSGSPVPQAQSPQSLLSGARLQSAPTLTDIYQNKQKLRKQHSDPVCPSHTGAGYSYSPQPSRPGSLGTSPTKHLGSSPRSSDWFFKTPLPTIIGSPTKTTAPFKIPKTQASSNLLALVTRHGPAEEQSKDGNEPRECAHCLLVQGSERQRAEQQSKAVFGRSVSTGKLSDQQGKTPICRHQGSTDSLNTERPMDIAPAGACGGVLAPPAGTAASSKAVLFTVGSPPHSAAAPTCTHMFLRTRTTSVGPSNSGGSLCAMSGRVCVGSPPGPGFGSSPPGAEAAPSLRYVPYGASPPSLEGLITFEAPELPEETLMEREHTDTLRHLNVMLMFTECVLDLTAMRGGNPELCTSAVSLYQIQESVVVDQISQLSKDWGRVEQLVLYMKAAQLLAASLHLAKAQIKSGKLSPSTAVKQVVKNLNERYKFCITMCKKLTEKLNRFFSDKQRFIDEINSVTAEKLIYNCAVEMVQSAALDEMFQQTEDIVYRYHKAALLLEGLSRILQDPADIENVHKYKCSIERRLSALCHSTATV
Protocol: as §1

[19] = target: T19, NEK4 (Homo sapiens, UniProt P51957); experiment: Kinase screening service: NEK4; format: biochemical; conditions: average of duplicates
T19 construct: purchased Life Technologies Corporation (Kinase Screening Service)
Protocol: as §1

[20] = target: T20, PHKG1 (Homo sapiens, UniProt Q16816); experiment: Kinase screening service: PHKG1; format: biochemical; conditions: average of duplicates
T20 construct: purchased Life Technologies Corporation (Kinase Screening Service)
Protocol: as §1

[21] = tested on: HT-22 cells; experiment: Effect on ROS (DHE staining) in HT-22 cells; format: cell-based; conditions: PT109 at 10 μM, 2 mM glutamine 10 h
Protocol: DHE staining was adopted to detect the formation of oxygen free radicals. The HT-22 cells were cultured in DMEM+10% fetal bovine serum and placed in a 5% CO2 incubator at 37° C. The cells were seeded in a poly-lysine-coated 24-well plate at a suitable density. After cell adherence, the PT109 separately prepared in the medium was added to the corresponding wells. Upon treatment for 30 min, 2 mM glutamine was added and treated for 10 h. The cells were harvested, and incubated with DHE dye for about 30 min. DHE dye was washed, and the fluorescence intensity of DHE was detected by a high-content system.

T1 sequence (P80192 whole entry): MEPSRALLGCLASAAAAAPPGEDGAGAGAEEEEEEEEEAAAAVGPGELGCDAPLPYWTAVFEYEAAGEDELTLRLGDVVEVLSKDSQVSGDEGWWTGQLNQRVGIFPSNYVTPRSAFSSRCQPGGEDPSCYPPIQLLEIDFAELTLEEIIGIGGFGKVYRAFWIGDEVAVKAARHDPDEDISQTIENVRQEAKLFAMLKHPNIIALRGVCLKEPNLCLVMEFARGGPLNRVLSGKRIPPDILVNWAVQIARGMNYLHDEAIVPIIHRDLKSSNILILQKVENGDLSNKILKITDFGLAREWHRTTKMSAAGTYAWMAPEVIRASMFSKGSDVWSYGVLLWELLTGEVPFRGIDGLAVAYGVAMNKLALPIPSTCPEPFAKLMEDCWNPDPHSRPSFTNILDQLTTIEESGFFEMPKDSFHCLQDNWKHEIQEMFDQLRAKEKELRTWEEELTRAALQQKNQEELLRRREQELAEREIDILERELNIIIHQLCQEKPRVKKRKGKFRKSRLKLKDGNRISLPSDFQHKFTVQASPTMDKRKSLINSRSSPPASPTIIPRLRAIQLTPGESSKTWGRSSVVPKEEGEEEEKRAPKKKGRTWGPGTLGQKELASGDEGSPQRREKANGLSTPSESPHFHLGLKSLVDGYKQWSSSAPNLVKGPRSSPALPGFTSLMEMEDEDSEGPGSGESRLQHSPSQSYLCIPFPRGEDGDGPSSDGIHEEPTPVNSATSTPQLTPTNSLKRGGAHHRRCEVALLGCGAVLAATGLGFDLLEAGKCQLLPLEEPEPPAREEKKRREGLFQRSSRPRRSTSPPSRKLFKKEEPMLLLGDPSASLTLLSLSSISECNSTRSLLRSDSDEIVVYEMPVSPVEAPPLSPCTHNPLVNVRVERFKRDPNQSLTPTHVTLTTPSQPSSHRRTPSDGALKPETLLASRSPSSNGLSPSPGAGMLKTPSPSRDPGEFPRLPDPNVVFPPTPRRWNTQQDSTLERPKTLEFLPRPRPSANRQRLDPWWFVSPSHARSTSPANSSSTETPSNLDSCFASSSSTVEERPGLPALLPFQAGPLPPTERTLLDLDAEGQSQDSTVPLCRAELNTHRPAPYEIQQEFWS

O=C(CCCCC1CCSS1)NC1CCC(Nc2cccc3cnccc23)CC1 (stereo not shown) [PT109, 5-(1,2-dithiolan-3-yl)-N-(4-(isoquinolin-5-ylamino)cyclohexyl) pentanamide]
inhibition at 10 µM [1]: 2%
inhibition at 10 µM [2]: 15%
inhibition at 10 µM [3]: 24%
inhibition at 10 µM [4]: 26%
inhibition at 10 µM [5]: 6%
inhibition at 10 µM [6]: 28%
IC50 [7]: 143 nM
inhibition at 10 µM ([7]; 10 μM, average of duplicates): 104%
inhibition at 10 µM [8]: -17%
inhibition at 10 µM [9]: 11%
inhibition at 10 µM [10]: 28%
inhibition at 10 µM [11]: 91%
inhibition at 10 µM [12]: 3%
inhibition at 10 µM [13]: 90%
inhibition at 10 µM [14]: 20%
inhibition at 10 µM [15]: 40%
inhibition at 10 µM [16]: 63%
inhibition at 10 µM [17]: 26%
inhibition at 10 µM [18]: 4%
inhibition at 10 µM [19]: 3%
inhibition at 10 µM [20]: 10%
glutamine-induced ROS elevation (DHE fluorescence) [21]: significantly reduced

— patent US10723724B2, “Compounds for treating degenerative diseases of central nervous system or brain tumor, and uses thereof” (SUN YAT-SEN UNIVERSITY, priority 2016, dated 2020)
